What all share (format): cell-based
One experiment deals with T1, glucagon receptor (Homo sapiens, UniProt P47871).
T1 construct: expressed in transfected cells; host or cells: HEK293
Kind of experiment: cAMP induction, firefly luciferase-based reporter assay in HEK293 cells co-transfected with glucagon receptor. The conditions noted are these: EC50 at Glucagon Receptor. An excerpt:
(§1) This example describes an exemplary method of testing the biological activity of the peptides of the present disclosures, which method involves assaying cAMP synthesis.
(In general: A reporter such as luciferase makes a cellular process visible.)

In the next experiment the target is T2, GLP-1 receptor (Homo sapiens, UniProt P43220).
T2 construct: expressed in transfected cells; host or cells: HEK293
The experiment in a line: cAMP induction, firefly luciferase-based reporter assay in HEK293 cells co-transfected with GLP-1 receptor. The conditions noted are these: EC50 at GLP-1 Receptor.
Text: as §1

Another experiment deals with T3, GIP receptor (Homo sapiens, UniProt P48546).
T3 construct: expressed in transfected cells; host or cells: HEK293
T3 sequence (P48546 22-466): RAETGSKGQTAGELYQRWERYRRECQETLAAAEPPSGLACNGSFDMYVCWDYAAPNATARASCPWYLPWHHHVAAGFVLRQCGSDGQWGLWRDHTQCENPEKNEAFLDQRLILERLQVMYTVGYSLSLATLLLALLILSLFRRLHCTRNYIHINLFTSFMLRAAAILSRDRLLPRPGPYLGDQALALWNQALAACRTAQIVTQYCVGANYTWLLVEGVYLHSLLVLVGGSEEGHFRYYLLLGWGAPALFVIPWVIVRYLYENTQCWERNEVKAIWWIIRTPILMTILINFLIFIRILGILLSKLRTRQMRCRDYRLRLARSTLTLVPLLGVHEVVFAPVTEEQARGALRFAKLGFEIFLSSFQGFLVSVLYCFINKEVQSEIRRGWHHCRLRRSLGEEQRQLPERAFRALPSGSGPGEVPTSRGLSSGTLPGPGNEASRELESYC
Kind of experiment: cAMP induction, firefly luciferase-based reporter assay in HEK293 cells co-transfected with GIP receptor. The conditions noted are these: EC50 at GIP Receptor.
Text: as §1

The mark [1] stands for this setting: Table 3, analogs of SEQ ID NO: 18 varying at position 3.
Setting [2] is: Table 2, analogs of SEQ ID NO: 18 varying at positions 16-21.

pEC50: −log10 of the molar value. *1 amine or outer side, *2 acyl side, *3 side chain or, on linkers, in order; H or OH if unused. Where a SMILES comes first, the peptide text is derived from it. Side-chain parts run from the residue outwards. [ ]: non-standard residue; d: D form. The star is where a group is joined. γGlu = O=C(O)[C@H](CCC(=O)[*:2])N[*:1]; Palmitoyl = CCCCCCCCCCCCCCCC(=O)*; Met(O) = CS(=O)CC[C@H](N)C(=O)O; hSer = N[C@@H](CCO)C(=O)O; Dab = NCC[C@H](N)C(=O)O; Aib = CC(C)(N)C(=O)O

T1 sequence (P47871 26-477): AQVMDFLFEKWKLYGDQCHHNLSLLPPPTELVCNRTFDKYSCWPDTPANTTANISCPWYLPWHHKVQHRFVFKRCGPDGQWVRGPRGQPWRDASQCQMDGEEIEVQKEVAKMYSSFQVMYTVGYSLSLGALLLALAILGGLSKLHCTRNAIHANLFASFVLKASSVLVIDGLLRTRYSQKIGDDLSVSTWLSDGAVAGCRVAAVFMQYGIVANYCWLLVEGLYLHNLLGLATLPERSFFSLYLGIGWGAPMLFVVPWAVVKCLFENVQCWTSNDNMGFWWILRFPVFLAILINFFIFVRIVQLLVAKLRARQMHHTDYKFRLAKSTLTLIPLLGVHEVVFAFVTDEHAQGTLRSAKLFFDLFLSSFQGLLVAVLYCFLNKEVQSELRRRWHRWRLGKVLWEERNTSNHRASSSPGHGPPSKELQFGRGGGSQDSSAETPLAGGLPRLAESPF
T2 sequence (P43220 24-463): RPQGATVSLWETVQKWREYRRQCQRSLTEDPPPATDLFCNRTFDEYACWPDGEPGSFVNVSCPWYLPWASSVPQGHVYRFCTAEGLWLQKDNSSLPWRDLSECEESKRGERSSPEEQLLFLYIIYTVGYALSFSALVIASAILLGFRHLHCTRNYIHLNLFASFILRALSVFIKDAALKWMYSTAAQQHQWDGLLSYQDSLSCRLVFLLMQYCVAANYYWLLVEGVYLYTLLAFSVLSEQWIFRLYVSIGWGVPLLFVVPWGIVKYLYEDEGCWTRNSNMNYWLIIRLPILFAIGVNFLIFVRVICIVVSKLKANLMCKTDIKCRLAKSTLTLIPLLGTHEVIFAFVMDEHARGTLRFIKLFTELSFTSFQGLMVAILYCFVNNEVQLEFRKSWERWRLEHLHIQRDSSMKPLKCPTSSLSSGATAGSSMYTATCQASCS

A word on the pEC50: it is the negative decadic logarithm of the EC50, by convention in mol/L. With `CCCCCCCCCCCCCCCC(=O)N[C@@H](CCC(=O)NCCCC[C@H](NC(=O)[C@H](CC(=O)O)NC(=O)[C@H](CO)NC(=O)[C@@H](NC(=O)[C@H](Cc1ccccc1)NC(=O)[C@@H](NC(=O)CNC(=O)[C@H](CCSC)NC(=O)C(C)(C)NC(=O)[C@@H](N)Cc1c[nH]cn1)[C@@H](C)O)[C@@H](C)O)C(=O)N[C@@H](CO)C(=O)N[C@@H](CCCCN)C(=O)N[C@@H](Cc1ccc(O)cc1)C(=O)N[C@@H](CC(C)C)C(=O)N[C@@H](CCC(=O)O)C(=O)N[C@@H](CCC(=O)O)C(=O)N[C@@H](CCCNC(=N)N)C(=O)N[C@@H](C)C(=O)N[C@@H](C)C(=O)N[C@@H](CCC(N)=O)C(=O)N[C@@H](CCC(=O)O)C(=O)N[C@@H](Cc1ccccc1)C(=O)N[C@H](C(=O)N[C@@H](CCC(N)=O)C(=O)N[C@@H](Cc1c[nH]c2ccccc12)C(=O)N[C@@H](CC(C)C)C(=O)N[C@@H](CC(C)C)C(=O)N[C@@H](CCC(=O)O)C(=O)NCC(=O)NCC(=O)N1CCC[C@H]1C(=O)N[C@@H](CO)C(=O)N[C@@H](CO)C(=O)NCC(=O)N[C@@H](C)C(=O)N1CCC[C@H]1C(=O)N1CCC[C@H]1C(=O)N1CCC[C@H]1C(=O)N[C@@H](CO)C(N)=O)C(C)C)C(=O)O` [compound 31] (H-H[Aib]MGTFTSDK([γGlu-Palmitoyl])SKYLEERAAQEFVQWLLEGGPSSGAPPPS-NH2; N-terminus assumed), the negative-log EC50 (pEC50) at glucagon receptor (setting [1]) is 10.52; on GLP-1 receptor (setting [1]), 11.70; at GIP receptor (setting [1]), 11.30.
On to `CCCCCCCCCCCCCCCC(=O)N[C@@H](CCC(=O)NCCCC[C@H](NC(=O)[C@H](CC(=O)O)NC(=O)[C@H](CO)NC(=O)[C@@H](NC(=O)[C@H](Cc1ccccc1)NC(=O)[C@@H](NC(=O)CNC(=O)[C@H](CCC(N)=O)NC(=O)C(C)(C)NC(=O)[C@@H](N)Cc1c[nH]cn1)[C@@H](C)O)[C@@H](C)O)C(=O)N[C@@H](CO)C(=O)N[C@@H](CCCCN)C(=O)N[C@@H](Cc1ccc(O)cc1)C(=O)N[C@@H](CC(C)C)C(=O)N[C@@H](CC(=O)O)C(=O)N[C@@H](CCC(=O)O)C(=O)N[C@@H](CCCNC(=N)N)C(=O)N[C@@H](C)C(=O)N[C@@H](C)C(=O)N[C@@H](CCCCN)C(=O)N[C@@H](CC(=O)O)C(=O)N[C@@H](Cc1ccccc1)C(=O)N[C@H](C(=O)N[C@@H](CCC(N)=O)C(=O)N[C@@H](Cc1c[nH]c2ccccc12)C(=O)N[C@@H](CC(C)C)C(=O)N[C@@H](CC(C)C)C(=O)N[C@@H](CC(=O)O)C(=O)NCC(=O)NCC(=O)N1CCC[C@H]1C(=O)N[C@@H](CO)C(=O)N[C@@H](CO)C(=O)NCC(=O)N[C@@H](C)C(=O)N1CCC[C@H]1C(=O)N1CCC[C@H]1C(=O)N1CCC[C@H]1C(=O)N[C@@H](CO)C(N)=O)C(C)C)C(=O)O` [compound 20] (H-H[Aib]QGTFTSDK([γGlu-Palmitoyl])SKYLDERAAKDFVQWLLDGGPSSGAPPPS-NH2; N-terminus assumed), for which the pEC50 is 11.22 at glucagon receptor (setting [2]), 11.00 on GLP-1 receptor (setting [2]) and 11.30 on GIP receptor (setting [2]).
Regarding `CCCCCCCCCCCCCCCC(=O)N[C@@H](CCC(=O)NCCCC[C@H](NC(=O)[C@H](CC(=O)O)NC(=O)[C@H](CO)NC(=O)[C@@H](NC(=O)[C@H](Cc1ccccc1)NC(=O)[C@@H](NC(=O)CNC(=O)[C@@H](NC(=O)C(C)(C)NC(=O)[C@@H](N)Cc1c[nH]cn1)C(C)C)[C@@H](C)O)[C@@H](C)O)C(=O)N[C@@H](CO)C(=O)N[C@@H](CCCCN)C(=O)N[C@@H](Cc1ccc(O)cc1)C(=O)N[C@@H](CC(C)C)C(=O)N[C@@H](CCC(=O)O)C(=O)N[C@@H](CCC(=O)O)C(=O)N[C@@H](CCCNC(=N)N)C(=O)N[C@@H](C)C(=O)N[C@@H](C)C(=O)N[C@@H](CCC(N)=O)C(=O)N[C@@H](CCC(=O)O)C(=O)N[C@@H](Cc1ccccc1)C(=O)N[C@H](C(=O)N[C@@H](CCC(N)=O)C(=O)N[C@@H](Cc1c[nH]c2ccccc12)C(=O)N[C@@H](CC(C)C)C(=O)N[C@@H](CC(C)C)C(=O)N[C@@H](CCC(=O)O)C(=O)NCC(=O)NCC(=O)N1CCC[C@H]1C(=O)N[C@@H](CO)C(=O)N[C@@H](CO)C(=O)NCC(=O)N[C@@H](C)C(=O)N1CCC[C@H]1C(=O)N1CCC[C@H]1C(=O)N1CCC[C@H]1C(=O)N[C@@H](CO)C(N)=O)C(C)C)C(=O)O` [compound 37] (H-H[Aib]VGTFTSDK([γGlu-Palmitoyl])SKYLEERAAQEFVQWLLEGGPSSGAPPPS-NH2; N-terminus assumed), the pEC50 is 10.54 on glucagon receptor (setting [1]), 11.70 at GLP-1 receptor (setting [1]) and 11.70 on GIP receptor (setting [1]).
`CCCCCCCCCCCCCCCC(=O)N[C@@H](CCC(=O)NCCCC[C@H](NC(=O)[C@H](CC(=O)O)NC(=O)[C@H](CO)NC(=O)[C@@H](NC(=O)[C@H](Cc1ccccc1)NC(=O)[C@@H](NC(=O)CNC(=O)[C@H](CCNC(C)=O)NC(=O)C(C)(C)NC(=O)[C@@H](N)Cc1c[nH]cn1)[C@@H](C)O)[C@@H](C)O)C(=O)N[C@@H](CO)C(=O)N[C@@H](CCCCN)C(=O)N[C@@H](Cc1ccc(O)cc1)C(=O)N[C@@H](CC(C)C)C(=O)N[C@@H](CCC(=O)O)C(=O)N[C@@H](CCC(=O)O)C(=O)N[C@@H](CCCNC(=N)N)C(=O)N[C@@H](C)C(=O)N[C@@H](C)C(=O)N[C@@H](CCC(N)=O)C(=O)N[C@@H](CCC(=O)O)C(=O)N[C@@H](Cc1ccccc1)C(=O)N[C@H](C(=O)N[C@@H](CCC(N)=O)C(=O)N[C@@H](Cc1c[nH]c2ccccc12)C(=O)N[C@@H](CC(C)C)C(=O)N[C@@H](CC(C)C)C(=O)N[C@@H](CCC(=O)O)C(=O)NCC(=O)NCC(=O)N1CCC[C@H]1C(=O)N[C@@H](CO)C(=O)N[C@@H](CO)C(=O)NCC(=O)N[C@@H](C)C(=O)N1CCC[C@H]1C(=O)N1CCC[C@H]1C(=O)N1CCC[C@H]1C(=O)N[C@@H](CO)C(N)=O)C(C)C)C(=O)O` [compound 36] (H-H[Aib][Dab](Ac)GTFTSDK([γGlu-Palmitoyl])SKYLEERAAQEFVQWLLEGGPSSGAPPPS-NH2; N-terminus assumed): the pEC50 was 11.05 on glucagon receptor (setting [1]), 11.52 at GLP-1 receptor (setting [1]) and 10.85 at GIP receptor (setting [1]).
For `CCCCCCCCCCCCCCCC(=O)N[C@@H](CCC(=O)NCCCC[C@H](NC(=O)[C@H](CC(=O)O)NC(=O)[C@H](CO)NC(=O)[C@@H](NC(=O)[C@H](Cc1ccccc1)NC(=O)[C@@H](NC(=O)CNC(=O)[C@H](CCO)NC(=O)C(C)(C)NC(=O)[C@@H](N)Cc1c[nH]cn1)[C@@H](C)O)[C@@H](C)O)C(=O)N[C@@H](CO)C(=O)N[C@@H](CCCCN)C(=O)N[C@@H](Cc1ccc(O)cc1)C(=O)N[C@@H](CC(C)C)C(=O)N[C@@H](CCC(=O)O)C(=O)N[C@@H](CCC(=O)O)C(=O)N[C@@H](CCCNC(=N)N)C(=O)N[C@@H](C)C(=O)N[C@@H](C)C(=O)N[C@@H](CCC(N)=O)C(=O)N[C@@H](CCC(=O)O)C(=O)N[C@@H](Cc1ccccc1)C(=O)N[C@H](C(=O)N[C@@H](CCC(N)=O)C(=O)N[C@@H](Cc1c[nH]c2ccccc12)C(=O)N[C@@H](CC(C)C)C(=O)N[C@@H](CC(C)C)C(=O)N[C@@H](CCC(=O)O)C(=O)NCC(=O)NCC(=O)N1CCC[C@H]1C(=O)N[C@@H](CO)C(=O)N[C@@H](CO)C(=O)NCC(=O)N[C@@H](C)C(=O)N1CCC[C@H]1C(=O)N1CCC[C@H]1C(=O)N1CCC[C@H]1C(=O)N[C@@H](CO)C(N)=O)C(C)C)C(=O)O` [compound 33] (H-H[Aib][hSer]GTFTSDK([γGlu-Palmitoyl])SKYLEERAAQEFVQWLLEGGPSSGAPPPS-NH2) the same measures were 10.82, 11.70 and 11.40.
For `CCCCCCCCCCCCCCCC(=O)N[C@@H](CCC(=O)NCCCC[C@H](NC(=O)[C@H](CC(=O)O)NC(=O)[C@H](CO)NC(=O)[C@@H](NC(=O)[C@H](Cc1ccccc1)NC(=O)[C@@H](NC(=O)CNC(=O)[C@H](CC[S+](C)[O-])NC(=O)C(C)(C)NC(=O)[C@@H](N)Cc1c[nH]cn1)[C@@H](C)O)[C@@H](C)O)C(=O)N[C@@H](CO)C(=O)N[C@@H](CCCCN)C(=O)N[C@@H](Cc1ccc(O)cc1)C(=O)N[C@@H](CC(C)C)C(=O)N[C@@H](CCC(=O)O)C(=O)N[C@@H](CCC(=O)O)C(=O)N[C@@H](CCCNC(=N)N)C(=O)N[C@@H](C)C(=O)N[C@@H](C)C(=O)N[C@@H](CCC(N)=O)C(=O)N[C@@H](CCC(=O)O)C(=O)N[C@@H](Cc1ccccc1)C(=O)N[C@H](C(=O)N[C@@H](CCC(N)=O)C(=O)N[C@@H](Cc1c[nH]c2ccccc12)C(=O)N[C@@H](CC(C)C)C(=O)N[C@@H](CC(C)C)C(=O)N[C@@H](CCC(=O)O)C(=O)NCC(=O)NCC(=O)N1CCC[C@H]1C(=O)N[C@@H](CO)C(=O)N[C@@H](CO)C(=O)NCC(=O)N[C@@H](C)C(=O)N1CCC[C@H]1C(=O)N1CCC[C@H]1C(=O)N1CCC[C@H]1C(=O)N[C@@H](CO)C(N)=O)C(C)C)C(=O)O` (stereo partly drawn) [compound 42] (H-H[Aib][Met(O)]GTFTSDK([γGlu-Palmitoyl])SKYLEERAAQEFVQWLLEGGPSSGAPPPS-NH2) the same measures were 10.38, 12.00 and 11.22.
